Results published in patent publication US12577234B2, “Antagonists of the muscarinic acetylcholine receptor M4” (Vanderbilt University, priority 2017, dated 2026).

Target: T1, human mAChR M4 (Homo sapiens, UniProt P08173)
T1 construct: expressed in transfected cells; host or cells: CHO-K1 (ATCC), stably co-expressing chimeric G protein Gqi5
T1 sequence (P08173 1-479): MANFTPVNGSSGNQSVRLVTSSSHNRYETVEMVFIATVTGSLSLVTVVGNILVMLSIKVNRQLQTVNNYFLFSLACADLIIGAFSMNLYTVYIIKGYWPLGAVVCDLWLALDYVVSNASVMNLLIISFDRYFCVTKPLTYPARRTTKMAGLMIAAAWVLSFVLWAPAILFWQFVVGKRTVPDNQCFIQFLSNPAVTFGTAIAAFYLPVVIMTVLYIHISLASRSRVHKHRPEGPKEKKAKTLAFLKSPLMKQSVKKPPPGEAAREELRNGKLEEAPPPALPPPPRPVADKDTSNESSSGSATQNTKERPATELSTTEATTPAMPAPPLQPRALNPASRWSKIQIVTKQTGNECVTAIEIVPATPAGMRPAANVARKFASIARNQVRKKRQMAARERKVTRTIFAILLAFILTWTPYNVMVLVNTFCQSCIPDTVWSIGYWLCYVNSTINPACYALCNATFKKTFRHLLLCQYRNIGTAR
Test: mAChR M4 cell-based functional assay (calcium mobilization, EC80 acetylcholine), human M4
Settings: for Emin: human M4, % ACh maximum at 30 μM
Protocol: Human or rat M4 cDNA, along with the chimeric G protein Gqi5, were transfected into Chinese hamster ovary (CHO-K1) cells purchased from the American Type Culture Collection using Lipofectamine2000. M4/Gqi5/CHO cells were grown in Ham's F-12 medium containing 10% heat-inactivated fetal bovine serum (FBS), 20 mM HEPES, 500 μg/mL G418 sulfate, and 200 μg/mL Hygromycin B.
For high throughput measurement of agonist-evoked increases in intracellular calcium, CHO-K1 cells stably expressing muscarinic receptors were plated in growth medium lacking G418 and hygromycin at 15,000 cells/20 μL/well in Greiner 384-well black-walled, tissue culture (TC)-treated, clear-bottom plates (VWR). Cells were incubated overnight at 37° C. and 5% CO2. […] Compound master plates were formatted in a 10 point concentration-response curve (CRC) format (1:3 dilutions) in 100% DMSO with a starting concentration of 10 or 1 mM using a BRAVO liquid handler (Agilent). Test compound CRCs were then transferred to daughter plates (240 nL) using the Echo acoustic plate reformatter (Labcyte, Sunnyvale, CA) and then diluted into assay buffer (40 μL) to a 2× stock using a Thermo Fisher Combi (Thermo Fisher Scientific, Waltham, MA).
Calcium flux was measured using the Functional Drug Screening System (FDSS) 6000 or 7000 (Hamamatsu Corporation, Tokyo, Japan) as an increase in the fluorescent static ratio. Compounds were applied to cells (20 μL, 2×) using the automated system of the FDSS at 2 seconds into the protocol and the data were collected at 1 Hz. […] Agonist activity was analyzed as a concentration-dependent increase in calcium mobilization upon compound addition. Positive allosteric modulator activity was analyzed as a concentration-dependent increase in the EC20 acetylcholine response. Antagonist activity was analyzed as a concentration-dependent decrease in the EC80 acetylcholine response; for the purposes of the tables herein, an IC50 (inhibitory concentration 50) was calculated as a concentration-dependent decrease of the response elicited by an EC80 concentration of acetylcholine. Concentration-response curves were generated using a four-parameter logistical equation in XLFit curve fitting software (IDBS, Bridgewater, NJ) for Excel (Microsoft, Redmond, WA) or Prism (GraphPad Software, Inc., San Diego, CA) or the Dotmatics software platform (Dotmatics, Bishop's Stortford, UK).

[1] = Table 9, M4/Gqi5/CHO-K1 cells, decrease of EC80 acetylcholine response
[2] = Table 10, M4/Gqi5/CHO-K1 cells, decrease of EC80 acetylcholine response

Human M4 Emin (Table 10) [%] | IC50 [1] [µM] | Emin (Table 9) [%] | IC50 [2] [µM] | Compound | also measured
– | 0.0168 | 8.84 | – | Fc1ccc(Cl)c(-c2ccc(N[C@H]3C[C@@H]4CN(Cc5ccccc5)C[C@@H]4C3)nn2)c1 [Compound 34, (3aR,5s,6aS)-2-benzyl-N-[6-(2-chloro-5-fluoro-phenyl)pyridazin-3-yl]-3,3a,4,5,6,6a-hexahydro-1H-cyclopenta[c]pyrrol-5-amine] | –
– | 0.0079 | 3.74 | – | Cc1cnn(C)c1-c1ccc(NC[C@H]2C[C@@H]3CN(CC4CC5C=CC4C5)C[C@@H]3C2)nn1 (stereo partly drawn) [Compound 64, N-[[(3aR,5s,6aS)-2-(5-bicyclo[2.2.1]hept-2-enylmethyl)-3,3a,4,5,6,6a-hexahydro-1H-cyclopenta[c]pyrrol-5-yl]methyl]-6-(2,4-dimethylpyrazol-3-yl)pyridazin-3-amine] | –
5 | – | – | 0.0125 | F[C@@H]1CCN(c2ccc(N[C@H]3C[C@@H]4CN(CC5CCOCC5)C[C@@H]4C3)nn2)C1 [Compound 194, (3aR,5s,6aS)-N-[6-[(3S)-3-fluoropyrrolidin-1-yl]pyridazin-3-yl]-2-(tetrahydropyran-4-ylmethyl)-3,3a,4,5,6,6a-hexahydro-1H-cyclopenta[c]pyrrol-5-amine] | –
13 | – | – | 0.00441 | c1nn(C2CC2)cc1-c1ccc(N[C@H]2C[C@@H]3CN(CC4CCOCC4)C[C@@H]3C2)nn1 [Compound 209, (3aR,5s,6aS)-N-[6-(1-cyclopropylpyrazol-4-yl)pyridazin-3-yl]-2-(tetrahydropyran-4-ylmethyl)-3,3a,4,5,6,6a-hexahydro-1H-cyclopenta[c]pyrrol-5-amine] | –
3 | – | – | 0.0427 | CS(=O)(=O)Nc1ccc(CN2C[C@H]3C[C@H](Nc4ccc(-c5cc(F)ccc5Cl)nn4)C[C@H]3C2)cc1 [Compound 172, N-[4-[[(3aR,5s,6aS)-5-[[6-(2-chloro-5-fluoro-phenyl)pyridazin-3-yl]amino]-3,3a,4,5,6,6a-hexahydro-1H-cyclopenta[c]pyrrol-2-yl]methyl]phenyl]methanesulfonamide] | –
41 | – | – | – | c1ccc(-c2cnc(N[C@H]3C[C@@H]4CN(CC5CCOCC5)C[C@@H]4C3)s2)cc1 [Compound 230, N-[(3aR,5s,6aS)-2-(tetrahydropyran-4-ylmethyl)-3,3a,4,5,6,6a-hexahydro-1H-cyclopenta[c]pyrrol-5-yl]-5-phenyl-thiazol-2-amine] | IC50 (Table 10, μM): > 10 µM
– | 5.31 | 17.2 | – | Cc1cnn(C)c1-c1ccc(NC[C@H]2C[C@@H]3CN(CC4CCCOC4)C[C@@H]3C2)nn1 (stereo partly drawn) [Compound 67, N-[[(3aR,5s,6aS)-2-(tetrahydropyran-3-ylmethyl)-3,3a,4,5,6,6a-hexahydro-1H-cyclopenta[c]pyrrol-5-yl]methyl]-6-(2,4-dimethylpyrazol-3-yl)pyridazin-3-amine] | –
24 | – | – | 0.0855 | FC(F)(F)c1ccc(-c2ccc(N[C@H]3C[C@@H]4CN(CC5CCOCC5)C[C@@H]4C3)nn2)cn1 [Compound 211, (3aR,5s,6aS)-2-(tetrahydropyran-4-ylmethyl)-N-[6-[6-(trifluoromethyl)-3-pyridyl]pyridazin-3-yl]-3,3a,4,5,6,6a-hexahydro-1H-cyclopenta[c]pyrrol-5-amine] | –
26 | – | – | 0.0549 | Cc1noc(C)c1-c1ccc(N[C@H]2C[C@@H]3CN(CC4CCOCC4)C[C@@H]3C2)nn1 [Compound 210, (3aR,5s,6aS)-N-[6-(3,5-dimethylisoxazol-4-yl)pyridazin-3-yl]-2-(tetrahydropyran-4-ylmethyl)-3,3a,4,5,6,6a-hexahydro-1H-cyclopenta[c]pyrrol-5-amine] | –
3 | – | – | 0.977 | CC(=O)Nc1ccc(-c2ccc(O[C@H]3C[C@@H]4CN(Cc5ccc(F)cc5)C[C@@H]4C3)nn2)cc1 [Compound 131, N-[4-[6-[[(3aR,5s,6aS)-2-[(4-fluorophenyl)methyl]-3,3a,4,5,6,6a-hexahydro-1H-cyclopenta[c]pyrrol-5-yl]oxy]pyridazin-3-yl]phenyl]acetamide] | –
– | – | 20.7 | – | Fc1ccc(Cl)c(-c2ccc(O[C@@H]3C[C@@H]4CN(CC5CCOCC5)C[C@@H]4C3)nn2)c1 [Compound 59, (3aR,5r,6aS)-5-[6-(2-chloro-5-fluoro-phenyl)pyridazin-3-yl]oxy-2-(tetrahydropyran-4-ylmethyl)-3,3a,4,5,6,6a-hexahydro-1H-cyclopenta[c]pyrrole] | IC50 (Table 9, μM): > 10 µM
4 | – | – | 0.127 | Cc1nn(C)cc1-c1ccc(N[C@H]2C[C@@H]3CN(CCC(C)(C)C)C[C@@H]3C2)nc1 [Compound 149, (3aR,5s,6aS)-2-(3,3-dimethylbutyl)-N-[5-(1,3-dimethylpyrazol-4-yl)-2-pyridyl]-3,3a,4,5,6,6a-hexahydro-1H-cyclopenta[c]pyrrol-5-amine] | –
– | 0.0583 | 4.01 | – | Cc1nn(C)cc1-c1ccc(OCC2C[C@@H]3CN(CCC(C)(C)C)C[C@@H]3C2)nn1 (stereo partly drawn) [Compound 92, (3sR,6aS)-2-(3,3-dimethylbutyl)-5-[[6-(1,3-dimethylpyrazol-4-yl)pyridazin-3-yl]oxymethyl]-3,3a,4,5,6,6a-hexahydro-1H-cyclopenta[c]pyrrole] | –
– | 0.0734 | 4.07 | – | Cc1cnn(C)c1-c1ccc(OCC2C[C@@H]3CN(CC4CC5C=CC4C5)C[C@@H]3C2)nn1 (stereo partly drawn) [Compound 80, (3aR,6aS)-2-(5-bicyclo[2.2.1]hept-2-enylmethyl)-5-[[6-(2,4-dimethylpyrazol-3-yl)pyridazin-3-yl]oxymethyl]-3,3a,4,5,6,6a-hexahydro-1H-cyclopenta[c]pyrrole] | –
– | 0.329 | 5.63 | – | Cc1nn(C)cc1-c1ccc(OCC2C[C@@H]3CN(Cc4ccc5c(c4)OCO5)C[C@@H]3C2)nn1 (stereo partly drawn) [Compound 105, (3aR,6aS)-2-(1,3-benzodioxol-5-ylmethyl)-5-[[6-(1,3-dimethylpyrazol-4-yl)pyridazin-3-yl]oxymethyl]-3,3a,4,5,6,6a-hexahydro-1H-cyclopenta[c]pyrrole] | –
3 | – | – | 0.0297 | Fc1cccc(CN2C[C@H]3C[C@H](Nc4ccc(-c5cc(F)ccc5Cl)nn4)C[C@H]3C2)c1 [Compound 175, (3aR,5s,6aS)-N-[6-(2-chloro-5-fluoro-phenyl)pyridazin-3-yl]-2-[(3-fluorophenyl)methyl]-3,3a,4,5,6,6a-hexahydro-1H-cyclopenta[c]pyrrol-5-amine] | –
– | 2.23 | 8.70 | – | Cc1nn(C)cc1-c1ccc(OCC2C[C@@H]3CN(CC4CCOCC4)C[C@@H]3C2)nn1 (stereo partly drawn) [Compound 98, (3aR,6aS)-5-[[6-(1,3-dimethylpyrazol-4-yl)pyridazin-3-yl]oxymethyl]-2-(tetrahydropyran-4-ylmethyl)-3,3a,4,5,6,6a-hexahydro-1H-cyclopenta[c]pyrrole] | –
5 | – | – | 0.0196 | Fc1ccc(Oc2ccc(N[C@H]3C[C@@H]4CN(CC5CCOCC5)C[C@@H]4C3)nn2)cc1 [Compound 225, (3aR,5s,6aS)-N-[6-(4-fluorophenoxy)pyridazin-3-yl]-2-(tetrahydropyran-4-ylmethyl)-3,3a,4,5,6,6a-hexahydro-1H-cyclopenta[c]pyrrol-5-amine] | –

Compound | Human M4 Emin (Table 10) [%] | IC50 [1] [µM] | Emin (Table 9) [%] | IC50 [2] [µM] | also measured
Clc1ccc(N[C@H]2C[C@@H]3CN(CC4CCOCC4)C[C@@H]3C2)nn1 [Compound 179, (3aR,5s,6aS)-N-(6-chloropyridazin-3-yl)-2-(tetrahydropyran-4-ylmethyl)-3,3a,4,5,6,6a-hexahydro-1H-cyclopenta[c]pyrrol-5-amine] | 29 | – | – | – | IC50 (Table 10, μM): > 10 µM
